One data set deals with T1, pig pancreas lipase (Sus scrofa, UniProt P00591).
T1 sequence (P00591 1-450): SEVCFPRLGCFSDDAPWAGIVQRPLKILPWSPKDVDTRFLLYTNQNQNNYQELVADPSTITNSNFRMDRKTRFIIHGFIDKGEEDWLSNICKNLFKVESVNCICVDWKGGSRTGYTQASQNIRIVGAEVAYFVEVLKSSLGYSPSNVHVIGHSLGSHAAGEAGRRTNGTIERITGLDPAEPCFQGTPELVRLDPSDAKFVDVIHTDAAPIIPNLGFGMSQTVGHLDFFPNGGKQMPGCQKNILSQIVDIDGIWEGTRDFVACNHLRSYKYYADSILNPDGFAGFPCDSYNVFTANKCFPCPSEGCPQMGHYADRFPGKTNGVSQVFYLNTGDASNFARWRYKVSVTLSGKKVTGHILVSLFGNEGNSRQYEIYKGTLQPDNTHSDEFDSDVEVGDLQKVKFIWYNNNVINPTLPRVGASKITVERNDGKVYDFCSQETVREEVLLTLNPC
As to the kind of experiment: Inhibition of pancreas lipase, titrimetric registration of oleic acid liberated in the cleavage of triolein. Format: biochemical. On the procedure: To an emulsion which contains 1 mM of taurodeoxycholate, 9 mM of taurocholeate, 0.1 mM of cholesterol, 1 mM of egg lecithin, 15 mg/ml of BSA, 2 mM of Tris HCl, 100 mM of sodium chloride, 1 mM of calcium chloride and triolein as the substrate was added the compound of formula I dissolved in ethanol or dimethyl sulfoxide (10% of the emulsion volume) and the reaction was started by the addition of 100 μg (175 U) of pig pancreas lipase. The pH was held at 8 during the reaction by the addition of sodium hydroxide solution. The IC50 was calculated from the consumption of sodium hydroxide solution determined during 10 minutes. The IC50 was that concentration at which the lipase activity was inhibited to half of the maximum.

For a further data set, the system named is mice. As to the kind of experiment: Acute toxicity after single oral administration to mice. It counts as in vivo.
Where [1] appears, read: pig pancreas lipase 100 μg (175 U), triolein substrate, pH 8, 10 minutes, concentration at which lipase activity was inhibited to half of the maximum, read-out: IC50 (converted).

Where two headings read alike, the source gives them in different places.

The IC50 is the midpoint of a concentration-inhibition curve.

For the compound `CC[C@@H]1C(=O)O[C@H]1C[C@@H](OC(=O)[C@H](CC(C)C)NC=O)c1ccc(Oc2ccccc2)cc1` [Example 2, 25a, N-formyl-(S)-leucine (R)-α-[[(2S,3S)-3-ethyl-4-oxo-2-oxetanyl]methyl]-p-phenoxybenzyl ester], the IC50 at pig pancreas lipase (setting [1]) was 22 nM. In the case of `CCCCCC[C@@H]1C(=O)O[C@H]1C[C@H](CCCC)OC(=O)[C@H](Cc1ccccc1)NC=O` [Example 6, 2, N-formyl-L-phenylalanine (S)-1-[[(2S,3S)-3-hexyl-4-oxo-2-oxetanyl]methyl]-4-pentyl ester], the IC50 at pig pancreas lipase was 2320 nM.

`CCCCCCCCCCC[C@H](O)C[C@@H]1OC(=O)[C@H]1CCCCCC` (relative stereo) [Example 9 F.2., rac-trans-3-hexyl-4-(2-hydroxytridecyl)-2-oxetanone(2S,3S,4S:2R,3R,4R)]: the IC50 at pig pancreas lipase (setting [1]) was 240000 nM. Still for that read-out and setting: to `CCCCC/C=C\C/C=C\CCCCCCC[C@@H](C[C@@H]1OC(=O)[C@H]1CC)OC(=O)[C@H](CC(C)C)NC=O` [Example 2, 21] belongs 38.5 nM; to `CCCCCCCCCCCCCCCCC[C@@H](C[C@@H]1OC(=O)[C@H]1CC)OC(=O)[C@H](CC(C)C)NC=O` [Example 4, 1, N-formyl-(S)-leucine (S)-1[[(2S,3S)-3-ethyl-4-oxo-2-oxetanyl]methyl]octadecyl ester], 210 nM. For the compound `CCCCCCCC/C=C\CCCCCCC[C@@H](C[C@@H]1OC(=O)[C@H]1CC)OC(=O)[C@H](CC(C)C)NC=O` (single isomer, unassigned) [Example 2, 23a], the “Toxicity (dose of the compound at which the animal survives)” value in the data set with mice was determined as 2000 mg/kg p.o. At pig pancreas lipase, the IC50 was 67.1 nM. For `C=CCC[C@@H](C[C@@H]1OC(=O)[C@H]1CCCCCCCCCC)OC(=O)[C@H](CC(C)C)NC=O` [Example 2, 34, N-formyl-L-leucine (S)-1-[[(2S,3S)-3-decyl-4-oxo-2-oxetanyl]methyl]-4-pentenyl ester] the same measures were 4000 mg/kg p.o and 288 nM. For `CCCCCCCCCCCC(C[C@@H]1OC(=O)[C@H]1CCCCCC)OC(=O)[C@@H](N)CC(C)C` (relative stereo) [Example 7, leucine 1-[(trans-3-hexyl-4-oxo-2-oxetanyl)methyl]dodecyl ester], the IC50 on pig pancreas lipase (setting [1]) is 32100 nM.

As to `CCCCCC[C@@H]1C(=O)O[C@H]1CC(CCCC)OC(=O)[C@H](CC(C)C)NC=O` (mixture of isomers) [Example 5, N-formyl-L-leucine 1-[(trans-3-hexyl-4-oxo-2-oxetanyl]-methyl]pentyl ester], the IC50 on pig pancreas lipase (setting [1]) is 503 nM. Same read-out and setting: as for `CCCCCCCCCCCC(C[C@@H]1OC(=O)[C@H]1CC)OC(=O)[C@H](CC(C)C)NC=O` (single isomer, unassigned) [Example 2, 13a, N-formyl-L-leucine 1-[(trans-3-ethyl-4-oxo-2-oxetanyl)methyl]dodecyl ester], the figure is 15.9 nM.

`C=CC[C@@H]1C(=O)O[C@H]1CC(CCCCCCCCCCC)OC(=O)[C@H](CC(C)C)NC=O` (mixture of isomers) [Example 2, 14, N-formyl-L-leucine 1-[(trans-3-allyl-4-oxo-2-oxetanyl)methyl]dodecyl ester]: the “Toxicity (dose of the compound at which the animal survives)” value in the data set on mice is given as 5000 mg/kg p.o. The IC50 on pig pancreas lipase was 33.2 nM.
